Laboratory results: patent US12077503B2, “Substituted cyclic amides and their use as herbicides” (FMC CORPORATION, priority 2015, dated 2024)

Legend:
Assay type in all cases: in vivo
[1] = tested on: barnyardgrass (Echinochloa crus-galli); experiment: Test G Pre-Emergence Protocol; settings: Echinochloa crus-galli, pre-emergence, 312 h, evaluated after 13 days; for pest or weed control at 15.625 g/ha: 15.625 g ai/ha, read-out: Barnyard grass damage rating (100=total damage to plant; 0=no damage to plant); for pest or weed control at 62.5 g/ha: 62.5 g ai/ha, 100=total damage to plant, 0=no damage to plant, read-out: plant damage rating, Barnyardgrass; for pest or weed control at 250 g/ha: 250 g ai/ha, read-out: Barnyardgrass damage rating (100=total damage to plant; 0=no damage to plant)
In short: (§1)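 Glasshouse pre-emergence test: soil-sown seeds, sprayed after 1 d at 15.625, 62.5 or 250 g/ha. Conditions 24/16° C day/night, 14 h light, 65% humidity, watering twice daily. Rating 13 d post-spray (100 = total damage).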

[2] = tested on: corn (Zea mays); experiment: Test G Pre-Emergence Protocol; settings: Zea mays, pre-emergence, 312 h, evaluated after 13 days; for plant injury at 15.625 g/ha: 15.625 g ai/ha; for plant injury at 15.625 g/ha / plant injury at 250 g/ha: read-out: Corn damage rating (100=total damage to plant; 0=no damage to plant); for plant injury at 62.5 g/ha: 62.5 g ai/ha, 100=total damage to plant, 0=no damage to plant, read-out: plant damage rating, Corn; for plant injury at 250 g/ha: 250 g ai/ha
In short: as §1

[3] = tested on: giant foxtail (Setaria faberi); experiment: Test G Pre-Emergence Protocol; settings: Setaria faberi, pre-emergence, 312 h, evaluated after 13 days; for pest or weed control at 15.625 g/ha: 15.625 g ai/ha; for pest or weed control at 15.625 g/ha / pest or weed control at 250 g/ha: read-out: Foxtail, Giant damage rating (100=total damage to plant; 0=no damage to plant); for pest or weed control at 62.5 g/ha: 62.5 g ai/ha, 100=total damage to plant, 0=no damage to plant, read-out: plant damage rating, Foxtail, Giant; for pest or weed control at 250 g/ha: 250 g ai/ha
In short: as §1

[4] = tested on: ivy-leaved morning glory (Ipomoea hederacea); experiment: Test G Pre-Emergence Protocol; settings: Ipomoea, pre-emergence, 312 h, evaluated after 13 days; for pest or weed control at 15.625 g/ha: 15.625 g ai/ha, read-out: Morning-glory, Ivy-leaved damage rating (100=total damage to plant; 0=no damage to plant); for pest or weed control at 62.5 g/ha: 62.5 g ai/ha, 100=total damage to plant, 0=no damage to plant, read-out: plant damage rating, Morningglory, Ivy-leaved; for pest or weed control at 250 g/ha: 250 g ai/ha, read-out: Morningglory, Ivy-leaved damage rating (100=total damage to plant; 0=no damage to plant)
In short: as §1

[5] = tested on: redroot pigweed (Amaranthus retroflexus); experiment: Test G Pre-Emergence Protocol; settings: Amaranthus retroflexus, pre-emergence, 312 h, evaluated after 13 days; for pest or weed control at 15.625 g/ha: 15.625 g ai/ha; for pest or weed control at 15.625 g/ha / pest or weed control at 250 g/ha: read-out: Pigweed, Redroot damage rating (100=total damage to plant; 0=no damage to plant); for pest or weed control at 62.5 g/ha: 62.5 g ai/ha, 100=total damage to plant, 0=no damage to plant, read-out: plant damage rating, Pigweed, Redroot; for pest or weed control at 250 g/ha: 250 g ai/ha
In short: as §1

[6] = tested on: velvetleaf (Abutilon theophrasti); experiment: Test G Pre-Emergence Protocol; settings: Abutilon theophrasti, pre-emergence, 312 h, evaluated after 13 days; for pest or weed control at 15.625 g/ha: 15.625 g ai/ha; for pest or weed control at 15.625 g/ha / pest or weed control at 250 g/ha: read-out: Velvetleaf damage rating (100=total damage to plant; 0=no damage to plant); for pest or weed control at 62.5 g/ha: 62.5 g ai/ha, 100=total damage to plant, 0=no damage to plant, read-out: plant damage rating, Velvetleaf; for pest or weed control at 250 g/ha: 250 g ai/ha
In short: as §1

[7] = tested on: barnyardgrass (Echinochloa crus-galli); experiment: Test G Post-Emergence Protocol; settings: Echinochloa crus-galli, post-emergence, 312 h; for pest or weed control at 15.625 g/ha: 15.625 g ai/ha, evaluated after 13 days (100=total damage to plant; 0=no damage to plant), read-out: Barnyardgrass damage rating; for pest or weed control at 62.5 g/ha: 62.5 g ai/ha, read-out: Barnyardgrass damage rating (100=total damage to plant; 0=no damage to plant); for pest or weed control at 62.5 g/ha / pest or weed control at 250 g/ha: evaluated after 13 days; for pest or weed control at 250 g/ha: 250 g ai/ha, read-out: damage to plant, Barnyardgrass (100=total damage to plant; 0=no damage to plant)
In short: (§2)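 Seedlings grown 8 days in soil in a glasshouse (24/16 °C day/night, 14 h light, 65% humidity) were sprayed post-emergence with compound in acetone/water 50:50 plus 0.5% Tween 20 at 15.625, 62.5 or 250 g/ha. Damage was scored after 13 days on a 0–100 scale (100 = total damage).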

[8] = tested on: corn (Zea mays); experiment: Test G Post-Emergence Protocol; settings: Zea mays, post-emergence, 312 h; for plant injury at 15.625 g/ha: 15.625 g ai/ha, evaluated after 13 days (100=total damage to plant; 0=no damage to plant), read-out: Corn damage rating; for plant injury at 62.5 g/ha: 62.5 g ai/ha, read-out: Corn damage rating (100=total damage to plant; 0=no damage to plant); for plant injury at 62.5 g/ha / plant injury at 250 g/ha: evaluated after 13 days; for plant injury at 250 g/ha: 250 g ai/ha, read-out: damage to plant, Corn (100=total damage to plant; 0=no damage to plant)
In short: as §2

[9] = tested on: giant foxtail (Setaria faberi); experiment: Test G Post-Emergence Protocol; settings: Setaria faberi, post-emergence, 312 h; for pest or weed control at 15.625 g/ha: 15.625 g ai/ha, evaluated after 13 days (100=total damage to plant; 0=no damage to plant), read-out: Foxtail, Giant damage rating; for pest or weed control at 62.5 g/ha: 62.5 g ai/ha, read-out: Foxtail, Giant damage rating (100=total damage to plant; 0=no damage to plant); for pest or weed control at 62.5 g/ha / pest or weed control at 250 g/ha: evaluated after 13 days; for pest or weed control at 250 g/ha: 250 g ai/ha, read-out: damage to plant, Foxtail, Giant (100=total damage to plant; 0=no damage to plant)
In short: as §2

[10] = tested on: ivy-leaved morning glory (Ipomoea hederacea); experiment: Test G Post-Emergence Protocol; settings: Ipomoea, post-emergence, 312 h; for pest or weed control at 15.625 g/ha: 15.625 g ai/ha, evaluated after 13 days (100=total damage to plant; 0=no damage to plant), read-out: Morningglory, Ivy-leaved damage rating; for pest or weed control at 62.5 g/ha: 62.5 g ai/ha, read-out: Morningglory, Ivy-leaved damage rating (100=total damage to plant; 0=no damage to plant); for pest or weed control at 62.5 g/ha / pest or weed control at 250 g/ha: evaluated after 13 days; for pest or weed control at 250 g/ha: 250 g ai/ha, read-out: damage to plant, Morningglory, Ivy-leaved (100=total damage to plant; 0=no damage to plant)
In short: as §2

[11] = tested on: redroot pigweed (Amaranthus retroflexus); experiment: Test G Post-Emergence Protocol; settings: Amaranthus retroflexus, post-emergence, 312 h; for pest or weed control at 15.625 g/ha: 15.625 g ai/ha, evaluated after 13 days (100=total damage to plant; 0=no damage to plant), read-out: Pigweed, Redroot damage rating; for pest or weed control at 62.5 g/ha: 62.5 g ai/ha, read-out: Pigweed, Redroot damage rating (100=total damage to plant; 0=no damage to plant); for pest or weed control at 62.5 g/ha / pest or weed control at 250 g/ha: evaluated after 13 days; for pest or weed control at 250 g/ha: 250 g ai/ha, read-out: damage to plant, Pigweed, Redroot (100=total damage to plant; 0=no damage to plant)
In short: as §2

[12] = tested on: velvetleaf (Abutilon theophrasti); experiment: Test G Post-Emergence Protocol; settings: Abutilon theophrasti, post-emergence, 312 h; for pest or weed control at 15.625 g/ha: 15.625 g ai/ha, evaluated after 13 days (100=total damage to plant; 0=no damage to plant), read-out: Velvetleaf damage rating; for pest or weed control at 62.5 g/ha: 62.5 g ai/ha, read-out: Velvetleaf damage rating (100=total damage to plant; 0=no damage to plant); for pest or weed control at 62.5 g/ha / pest or weed control at 250 g/ha: evaluated after 13 days; for pest or weed control at 250 g/ha: 250 g ai/ha, read-out: damage to plant, Velvetleaf (100=total damage to plant; 0=no damage to plant)
In short: as §2

SMILES: COc1cc([C@@H]2CN(C)C(=O)[C@H]2C(=O)Nc2cccc(F)c2F)ccn1 (racemic) [Compound 1480]
- pest or weed control at 15.625 g/ha [1]: 30%
- pest or weed control at 62.5 g/ha [1]: 80%
- pest or weed control at 250 g/ha [1]: 90%
- plant injury at 15.625 g/ha [2]: 20%
- plant injury at 62.5 g/ha [2]: 30%
- plant injury at 250 g/ha [2]: 80%
- pest or weed control at 15.625 g/ha [3]: 40%
- pest or weed control at 62.5 g/ha [3]: 90%
- pest or weed control at 250 g/ha [3]: 90%
- pest or weed control at 15.625 g/ha [4]: 0%
- pest or weed control at 62.5 g/ha [4]: 0%
- pest or weed control at 250 g/ha [4]: 70%
- pest or weed control at 15.625 g/ha [5]: 0%
- pest or weed control at 62.5 g/ha [5]: 0%
- pest or weed control at 250 g/ha [5]: 40%
- pest or weed control at 15.625 g/ha [6]: 0%
- pest or weed control at 62.5 g/ha [6]: 0%
- pest or weed control at 250 g/ha [6]: 10%
- pest or weed control at 15.625 g/ha [7]: 50%
- pest or weed control at 62.5 g/ha [7]: 70%
- pest or weed control at 250 g/ha [7]: 80%
- plant injury at 15.625 g/ha [8]: 20%
- plant injury at 62.5 g/ha [8]: 20%
- plant injury at 250 g/ha [8]: 60%
- pest or weed control at 15.625 g/ha [9]: 60%
- pest or weed control at 62.5 g/ha [9]: 70%
- pest or weed control at 250 g/ha [9]: 70%
- pest or weed control at 15.625 g/ha [10]: 0%
- pest or weed control at 62.5 g/ha [10]: 0%
- pest or weed control at 250 g/ha [10]: 20%
- pest or weed control at 15.625 g/ha [11]: 0%
- pest or weed control at 62.5 g/ha [11]: 0%
- pest or weed control at 250 g/ha [11]: 10%
- pest or weed control at 15.625 g/ha [12]: 0%
- pest or weed control at 62.5 g/ha [12]: 0%
- pest or weed control at 250 g/ha [12]: 20%

SMILES: Cc1cc(NC(=O)[C@@H]2C(=O)N(C)C[C@H]2c2ccc(C(F)(F)F)cc2)sn1 (racemic) [Compound 1560]
- pest or weed control at 15.625 g/ha [1]: 0%
- pest or weed control at 62.5 g/ha [1]: 0%
- pest or weed control at 250 g/ha [1]: 10%
- plant injury at 15.625 g/ha [2]: 0%
- plant injury at 62.5 g/ha [2]: 0%
- plant injury at 250 g/ha [2]: 10%
- pest or weed control at 15.625 g/ha [3]: 0%
- pest or weed control at 62.5 g/ha [3]: 0%
- pest or weed control at 250 g/ha [3]: 10%
- pest or weed control at 15.625 g/ha [4]: 0%
- pest or weed control at 62.5 g/ha [4]: 0%
- pest or weed control at 250 g/ha [4]: 0%
- pest or weed control at 15.625 g/ha [5]: 0%
- pest or weed control at 62.5 g/ha [5]: 0%
- pest or weed control at 250 g/ha [5]: 0%
- pest or weed control at 15.625 g/ha [6]: 0%
- pest or weed control at 62.5 g/ha [6]: 0%
- pest or weed control at 250 g/ha [6]: 0%
- pest or weed control at 15.625 g/ha [7]: 0%
- pest or weed control at 62.5 g/ha [7]: 0%
- pest or weed control at 250 g/ha [7]: 20%
- plant injury at 15.625 g/ha [8]: 0%
- plant injury at 62.5 g/ha [8]: 0%
- plant injury at 250 g/ha [8]: 0%
- pest or weed control at 15.625 g/ha [9]: 0%
- pest or weed control at 62.5 g/ha [9]: 0%
- pest or weed control at 250 g/ha [9]: 20%
- pest or weed control at 15.625 g/ha [10]: 0%
- pest or weed control at 62.5 g/ha [10]: 0%
- pest or weed control at 250 g/ha [10]: 0%
- pest or weed control at 15.625 g/ha [11]: 0%
- pest or weed control at 62.5 g/ha [11]: 0%
- pest or weed control at 250 g/ha [11]: 20%
- pest or weed control at 15.625 g/ha [12]: 0%
- pest or weed control at 62.5 g/ha [12]: 0%
- pest or weed control at 250 g/ha [12]: 10%
